“Also recorded” adds a separate entry of the source.
How the values were obtained:
[1] = Psilocybin plasma pharmacokinetics after s.c. psilocybin; assay type: in vivo; settings: rats
Description: Psilocybin doses of 0.05, 0.1, 1, 10 mg/kg were used to evaluate psilocybin and psilocin PK in rats.
Details of the plasma concentration studies are shown in Tables 1-8 (psilocybin) and 9-16 (psilocin). Values in italics are below the lower level of quantitation (BLQ, <1 ng/mL) but were included in calculations. Values in bold and underlined are considered to be outliers and were omitted from calculations. Measured dosing solution concentrations were 0.0460, 0.0967, 0.948 and 9.65 mg/mL for 0.05, 0.1, 1 and 10 […].

5-HT2A receptor = 5-HT2A receptor (Rattus norvegicus, UniProt P14842); test: Dose finding: behavioral syndrome, wet dog shakes (WDS) and back muscle contractions (BMC); settings: rats
Chain of 5-HT2A receptor (P14842 whole entry): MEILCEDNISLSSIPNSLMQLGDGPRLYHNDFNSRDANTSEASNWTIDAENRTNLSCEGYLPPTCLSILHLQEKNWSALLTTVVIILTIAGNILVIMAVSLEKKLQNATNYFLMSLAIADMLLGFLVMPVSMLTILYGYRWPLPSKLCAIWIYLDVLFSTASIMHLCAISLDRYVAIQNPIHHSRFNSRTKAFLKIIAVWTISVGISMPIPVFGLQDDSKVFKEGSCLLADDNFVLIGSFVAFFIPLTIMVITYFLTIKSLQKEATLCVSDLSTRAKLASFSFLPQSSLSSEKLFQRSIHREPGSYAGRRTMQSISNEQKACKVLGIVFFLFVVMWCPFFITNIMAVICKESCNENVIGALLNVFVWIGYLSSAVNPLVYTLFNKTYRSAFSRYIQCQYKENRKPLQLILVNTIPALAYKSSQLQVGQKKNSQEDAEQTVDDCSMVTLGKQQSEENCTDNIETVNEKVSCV
Description: The total number (N) of wet dog shakes (WDS) and back muscle contractions (BMC) is plotted against dose (mg/kg).
Psilocybin was tested at a dose range of 0.03-10.0 mg/kg administered sub-cutaneously (S.C.) Behavioral syndrome including wet dog shakes (WDS) and back muscle contractions (BMC) are characteristic of 5-HT2A receptor activity and potentially indicative of psychomotor signs. […] There is a parallel between behaviors such as WDS in rats and hallucination in humans (Behavioral Neurobiology of Psychedelic Drugs, Halberstadt, Adam, Vollenweider, Franz X., Nichols, David E. (Eds.), Springer, 2018, p 161).

Long Evans rats [2] = test: 5CSRTT with 10 s ITI, premature (PREM) and perseverative (PSV) responses; assay type: in vivo; settings: 0.05 mg/kg S.C., 24 rats
Description: A) Graphs show increase in PREM and PSV responses under a 5 second inter-trial interval (ITI) which establishes a baseline (Base) and a 10 second ITI across 24 animals across two doses of psilocybin (0.05 mg/kg and 0.1 mg/kg). Standard deviation is indicated by error bars; asterisks (*) indicate significance vs. vehicle (P=0.05) using T-test. B) Graphs show effects of psilocybin on PREM and PSV in low performer and high performer subgroups. Standard error of the mean is indicated by error bars; asterisks (*) indicate significance vs. vehicle (P<0.01) using T-test. High performers are defined as rats with the highest tertile of premature responses in the baseline test; low performers are rats with the bottom tertile of premature responses in the baseline test.
Experiments were conducted to test psilocybin doses in the range of 0.05-0.2 mg/kg psilocybin administered S.C. across progressive ratio (PR) and 5-choice serial reaction time task (5CSRTT) to examine the effect of psilocybin on endophenotypes of motivation and attention. In each study, a population of out-bred Long Evans rats was first tested as a group for response to the PR and 5CSRTT. Each group was then divided into sub-groups by tertiles according to performance, and then exposed to various dose levels immediately prior to re-testing at various psilocybin dose levels. […]

Long Evans rats [3] = test: 5-choice serial reaction time task (5CSRTT), standard conditions, 5 s ITI; assay type: in vivo
Description: Asterisk (*) indicates statistical difference vs. vehicle. […] High performers are defined as rats completing the highest tertile of Hits or Correct nose-pokes in the baseline test; low performers are rats completing the bottom tertile of Hits or Correct nose-pokes in the baseline test.
Asterisk (*) indicates statistical significance vs. vehicle.
(§1) Experiments were conducted to test psilocybin doses in the range of 0.05-0.2 mg/kg psilocybin administered S.C. across progressive ratio (PR) and 5-choice serial reaction time task (5CSRTT) to examine the effect of psilocybin on endophenotypes of motivation and attention. In each study, a population of out-bred Long Evans rats was first tested as a group for response to the PR and 5CSRTT. Each group was then divided into sub-groups by tertiles according to performance, and then exposed to various dose levels immediately prior to re-testing at various psilocybin dose levels.
The 5CSRTT involves evaluating test subject response to a brief visual stimulus (Higgins, Guy & Silenieks, Leonardo. (2017). Rodent Test of Attention and Impulsivity: The 5-Choice Serial Reaction Time Task: The 5-Choice Serial Reaction Time Task. 10.1002/cpph.27). Animals are trained to make a nose-poke response to a stimulus location in order to collect a food reward. The task allows the experimenter to measure animal performance in multiple domains including: • Attention • Impulsivity • Perseveration • Speed of response
A strength of the test is its flexible configuration to challenge test subjects: • Standard test conditions (0.75 s stimulus duration (SD), 5 s inter-trial interval (ITI), 100 trials) • Multiple short stimulus duration (mSD) (0.03-1 s SD) • Fixed long ITI (5 s vs. 10 s ITI) • Multiple ultrashort ITI (2-5 s ITI) • Extended 250 trials
Asterisk (*) indicates statistical significance vs. vehicle. (FIG. 3A).
When this population is segmented into tertiles according to performance based on accuracy (% correct, calculated as #correct/(#correct+ #incorrect)*100), the lowest performing tertile (N=8) are considered to be low attentive and potentially representative of a low attentive endophenotype of depression (FIG. 6A). Low attentive rats also score poorly on % hit (FIG. 6B) and have a slower response speed (FIG. 6D). […] Asterisk (*) indicates statistical significance vs. vehicle.

rats = test: Dose finding: locomotor activity (distance travelled); assay type: in vivo
From the text: Stimulant drugs cause far larger increases in distance travelled with escalating doses, reflective of a direct motor stimulant property not seen with psilocybin.

Long Evans rats [4] = test: Progressive ratio (PR) test of motivation; assay type: in vivo
Description: High responders are defined as rats completing the highest tertile of lever presses in the baseline test; low responders are rats completing the bottom tertile of lever presses in the baseline test. Asterisk (*) indicates statistical significance between high and low responders.
as §1
The PR test is used to answer how willing the test subject is to work for food (i.e. test of motivation). A single 45 mg food pellet (i.e. reinforcer) is made available to the test animal based on lever press response. To obtain each successive pellet, the animal must make increasingly more lever presses. Typically, a progression of 2, 4, 6, 9, 12, 15, 20, 25, 32, 40, 50, 62, 77, 95, 118, etc. is used, derived from the equation: […]
At some point, the animal gives up as the motor demands to obtain a single pellet are not deemed worthwhile (i.e. animal reaches “break point” defined as animal's failure to earn a food pellet in 20 minutes).
Psilocybin was administered to rats S.C. at doses of 0.05, 0.1 and 0.2 mg/kg.
Rats were then sub-grouped into tertiles based on the number of lever presses for food at baseline, so that within the test population of 36 animals, 12 animals were identified as low responders, characterized by low motivation and potentially corresponding to low motivation endophenotype representative of clinical depression. Twelve animals were identified as high responders. There was a statistically significant difference between the high and low responders. […] This represents a motivational enhancing effect of psilocybin in the cohort corresponding to a low motivation endophenotype representative of clinical depression.

With CN(C)CCc1c[nH]c2cccc(OP(=O)(O)O)c12 [psilocybin, 4-phosphoryloxy-N,N-dimethyltryptamine] the “AUC0-tlast, psilocybin, Mean” value ([1]; 0.05 mg/kg s.c.) was 10.7 ng·h/mL, the “Cmax, psilocybin, Mean” value ([1]; 0.05 mg/kg s.c.) was 18.9 ng/mL and the “Cmax/Dose, psilocybin, Mean” value ([1]; 0.05 mg/kg s.c.) was 377 kg·ng/mL/mg. The “tmax, psilocybin, Mean” value ([1]; 0.05 mg/kg s.c.) was 36 min, the “AUC0-tlast, psilocybin, Mean” value ([1]; 0.1 mg/kg s.c.) was 11.4 ng·h/mL and the “Cmax, psilocybin, Mean” value ([1]; 0.1 mg/kg s.c.) was 31.4 ng/mL. The “Cmax/Dose, psilocybin, Mean” value ([1]; 0.1 mg/kg s.c.) was 314 kg·ng/mL/mg, the “tmax, psilocybin, Mean” value ([1]; 0.1 mg/kg s.c.) was 19.3 min and the “AUC0-inf, psilocybin, Mean” value ([1]; 1.0 mg/kg s.c.) was 47.9 ng·h/mL. For the same compound, the “AUC0-inf/Dose, psilocybin, Mean” value ([1]; 1.0 mg/kg s.c.) was 47.9 kg·ng·h/mL/mg, the “AUC0-tlast, psilocybin, Mean” value ([1]; 1.0 mg/kg s.c.) was 53.1 ng·h/mL and the “Apparent t1/2, psilocybin, Mean” value ([1]; 1.0 mg/kg s.c.) was 26.7 min. For the same compound, the “Cmax, psilocybin, Mean” value ([1]; 1.0 mg/kg s.c.) was 78.3 ng/mL, the “Cmax/Dose, psilocybin, Mean” value ([1]; 1.0 mg/kg s.c.) was 78.3 kg·ng/mL/mg and the “MRT0-inf, psilocybin, Mean” value ([1]; 1.0 mg/kg s.c.) was 44.8 min. The “tmax, psilocybin, Mean” value ([1]; 1.0 mg/kg s.c.) was 21.4 min, the “AUC0-inf, psilocybin, Mean” value ([1]; 10 mg/kg s.c.) was 2156 ng·h/mL and the “AUC0-inf/Dose, psilocybin, Mean” value ([1]; 10 mg/kg s.c.) was 216 kg·ng·h/mL/mg. The “AUC0-tlast, psilocybin, Mean” value ([1]; 10 mg/kg s.c.) was 1707 ng·h/mL, the “Apparent t1/2, psilocybin, Mean” value ([1]; 10 mg/kg s.c.) was 34 min and the “Cmax, psilocybin, Mean” value ([1]; 10 mg/kg s.c.) was 3595 ng/mL. For the same compound, the “Cmax/Dose, psilocybin, Mean” value ([1]; 10 mg/kg s.c.) was 359 kg·ng/mL/mg, the “MRT0-inf, psilocybin, Mean” value ([1]; 10 mg/kg s.c.) was 43 min and the “tmax, psilocybin, Mean” value ([1]; 10 mg/kg s.c.) was 30 min. For the same compound, the “signs of behavioral syndrome (WDS, BMC)” value (5-HT2A receptor; 0.3 mg/kg I.P and higher) was “significant signs of behavior syndrome”, the “signs of behavioral syndrome (WDS, BMC)” value (5-HT2A receptor; 0.03-0.1 mg/kg S.C.) was “no signs of behavioral syndrome” and the “PREM and PSV responses” value (Long Evans rats [2]) was “an increase (p=0.05, t-test) increase in PREM and PSV responses”. For the same compound, the “pro-cognitive effect, % hit” value (Long Evans rats [3]; 0.05 mg/kg S.C., 24 rats, 75 s SD, 5 S ITI, 100 trials, vs. vehicle) was “increased (p=0.05, t-test) pro-cognitive effect”, the “procognitive effect, % correct” value (Long Evans rats [3]; 0.05 mg/kg S.C., 24 rats, standard conditions) was “slight non-significant increase in procognitive effect” and the response speed (Long Evans rats [3]; 0.05 mg/kg, low attentive cohort, vs. vehicle) was “increased response speed in the low attentive cohort compared with vehicle; also recorded: Significant improvements”. For the same compound, the “effect on accuracy (% correct and % hit)” value (Long Evans rats [3]; 0.05 and 0.1 mg/kg, low attentive subgroup (N=8), vs. vehicle) was “strongly evident in the low attentive subgroup compared with vehicle; also recorded: Significant improvements”, the distance travelled (rats; high doses) was “slightly decreased distanced travelled” and the “increase in distance travelled” value (rats; low doses) was 0.3-0.4 fold. For the same compound, the “PR food responding (lever presses, break point)” value (Long Evans rats [4]; 0.05 mg/kg S.C., low responder subgroup (12 rats)) was “an increase in food responding in low responder subgroup; also recorded: Significant improvements”, the PR food responding (Long Evans rats [4]; 0.1 mg/kg S.C., low responder subgroup (12 rats)) was “did not produce an increase in food responding” and the “number of lever presses or break points (rewards earned)” value (Long Evans rats [4]; 0.05, 0.1 and 0.2 mg/kg S.C., entire study population of 36 rats) was “None of these doses were observed to cause obvious changes in the number of lever presses or break points”. The “PR response (lever presses)” value (Long Evans rats [4]; 0.05-0.2 mg/kg S.C., high responder subgroup (12 rats)) was “no effect on response in high responder subgroup” and the “detrimental effects on performance (motivation, motor control, attention, response speed)” value (Long Evans rats [4]; PR 0.05-0.2 mg/kg and 5CSRTT 0.05-0.1 mg/kg S.C.) was “no detrimental effects of psilocybin were noted on performance”.

Reference: patent US12691130B2, “Compositions and methods for improving cognitive function” (Diamond Therapeutics Inc., priority 2019, dated 2026)
